Data: patent US6596309B2, “Stable pharmaceutical dosage form for paroxetin anhydrate” (BASF Aktiengesellschaft, priority 1999, dated 2003)

Experiment: Check for conversion of the anhydrate to the hemihydrate in soft gelatin capsules (infrared spectroscopy or DSC)
Assay type: physicochemical
Conditions: paroxetin anhydrate incorporated into soft gelatin capsules; lipophilic carrier silicone oil
Text: The incorporation of paroxetin anhydrate into soft gelatin capsules was surprising because soft gelatin contains very large amounts of water during the encapsulation process. […] However, the use of glycerol in the preparation of the capsule coat should be avoided.
A test for absence of the hemihydrate can be performed very simply by infrared spectroscopy or differential scanning calorimetry (DSC), as described by P.C. Baxter et al. in the International Journal of Pharmaceutics, 42 (1988), pages 135 to 143.

Fc1ccc([C@@H]2CCNC[C@H]2COc2ccc3c(c2)OCO3)cc1 (relative stereo) [paroxetin anhydrate, (—)-trans-4-(4′-fluorophenyl)-3-(3′,4′-methylenedioxyphenoxymethyl)-piperidine]
conversion to the hemihydrate: did not occur
